Experimental data published in ChEMBL document CHEMBL1201861, “Genomics of Drug Sensitity in Cancer screening data, Wellcome Trust Sanger Institute”.

Columns and labels:
Assay in all cases: cells
SF-539 = type: functional, cell-based, Homo sapiens; conditions: Homo sapiens, SF-539;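 further: Read-out is a cell viability assay, with IC50 reflecting inhibition of cell growth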
Description: SANGER: Inhibition of human SF539 cell growth in a cell viability assay.

NCI-H1838 = type: functional, cell-based, Homo sapiens; conditions: Homo sapiens, NCI-H1838;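 further: growth inhibition of NCI-H1838 cells, determined with a cell viability readout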
Description: SANGER: Inhibition of human NCI-H1838 cell growth in a cell viability assay.

SNU1 = type: functional, cell-based, Homo sapiens; conditions: Homo sapiens, SNU1;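 further: growth inhibition of human NCI-SNU-1 cells, measured with a cell viability assay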
Description: SANGER: Inhibition of human NCI-SNU-1 cell growth in a cell viability assay.

ES3 = type: functional, cell-based, Homo sapiens; conditions: Homo sapiens, ES3;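 further: growth inhibition of ES3 cells, read out with a cell viability assay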
Description: SANGER: Inhibition of human ES3 cell growth in a cell viability assay.

UACC-257 = type: functional, cell-based, Homo sapiens; conditions: Homo sapiens, UACC-257
Description: SANGER: Inhibition of human UACC-257 cell growth in a cell viability assay.

NCI-H1581 = type: functional, cell-based, Homo sapiens; conditions: Homo sapiens, NCI-H1581;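 further: cell growth inhibition read out by a viability assay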
Description: SANGER: Inhibition of human NCI-H1581 cell growth in a cell viability assay.

KU812 cell line = type: functional, cell-based, Homo sapiens; conditions: Homo sapiens, KU812;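 further: growth inhibition of KU812 cells, read out with a cell viability assay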
Description: SANGER: Inhibition of human KU812 cell growth in a cell viability assay.

TE-9 = type: functional, cell-based, Homo sapiens; conditions: Homo sapiens, TE-9;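 further: cell growth inhibition, measured with a cell viability readout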
Description: SANGER: Inhibition of human TE-9 cell growth in a cell viability assay.

EC-GI-10 = type: functional, cell-based, Homo sapiens; conditions: Homo sapiens, EC-GI-10
Description: SANGER: Inhibition of human EC-GI-10 cell growth in a cell viability assay.

RXF 393 = type: functional, cell-based, Homo sapiens; conditions: Homo sapiens, RXF 393;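 further: growth inhibition of human RXF 393 cells, read out with a cell viability assay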
Description: SANGER: Inhibition of human RXF393 cell growth in a cell viability assay.

NCI-H446 = type: functional, cell-based, Homo sapiens; conditions: Homo sapiens, NCI-H446;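 further: growth inhibition of NCI-H446 cells determined by a cell viability assay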
Description: SANGER: Inhibition of human NCI-H446 cell growth in a cell viability assay.

L-428 = type: functional, cell-based, Homo sapiens; conditions: Homo sapiens, L-428
Description: SANGER: Inhibition of human L-428 cell growth in a cell viability assay.

QIMR-WIL = type: functional, cell-based, Homo sapiens; conditions: Homo sapiens, QIMR-WIL;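 further: growth inhibition of QIMR-WIL cells, read out with a cell viability assay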
Description: SANGER: Inhibition of human QIMR-WIL cell growth in a cell viability assay.

LU-134-A = type: functional, cell-based, Homo sapiens; conditions: Homo sapiens, LU-134-A
Description: SANGER: Inhibition of human LU-134-A cell growth in a cell viability assay.

MS-1 = type: functional, cell-based, Homo sapiens; conditions: Homo sapiens, MS-1
Description: SANGER: Inhibition of human MS-1 cell growth in a cell viability assay.

HH = type: functional, cell-based, Homo sapiens; conditions: Homo sapiens, HH
Description: SANGER: Inhibition of human HH cell growth in a cell viability assay.

SNB-75 = type: functional, cell-based, Homo sapiens; conditions: Homo sapiens, SNB-75;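 further: cell viability assay measuring growth inhibition of human SNB-75 cells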
Description: SANGER: Inhibition of human SNB75 cell growth in a cell viability assay.

Calu-6 = type: functional, cell-based, Homo sapiens; conditions: Homo sapiens, Calu-6;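 further: growth of human Calu-6 cells, read out by a cell viability assay, IC50 marking inhibition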
Description: SANGER: Inhibition of human Calu-6 cell growth in a cell viability assay.

NCI-H1648 = type: functional, cell-based, Homo sapiens; conditions: Homo sapiens, NCI-H1648;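 further: cell viability assay measuring inhibition of NCI-H1648 cell growth, from the Sanger screening data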
Description: SANGER: Inhibition of human NCI-H1648 cell growth in a cell viability assay.

CAS-1 = type: functional, cell-based, Homo sapiens; conditions: Homo sapiens, CAS-1;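 further: growth inhibition of CAS-1 cells, measured with a cell viability assay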
Description: SANGER: Inhibition of human CAS-1 cell growth in a cell viability assay.

HCC2157 = type: functional, cell-based, Homo sapiens; conditions: Homo sapiens, HCC2157;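 further: growth inhibition of the cancer cell line, read out as cell viability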
Description: SANGER: Inhibition of human HCC2157 cell growth in a cell viability assay.

K5 = type: functional, cell-based, Homo sapiens; conditions: Homo sapiens, K5
Description: SANGER: Inhibition of human K5 cell growth in a cell viability assay.

EW-24 = type: functional, cell-based, Homo sapiens; conditions: Homo sapiens, EW-24;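 further: human EW-24 cancer cell line, growth inhibition read out via a cell viability assay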
Description: SANGER: Inhibition of human EW-24 cell growth in a cell viability assay.

DSH1 = type: functional, cell-based, Homo sapiens; conditions: Homo sapiens, DSH1;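 further: growth inhibition of human DSH1 cells, measured with a cell viability readout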
Description: SANGER: Inhibition of human DSH1 cell growth in a cell viability assay.

NOMO-1 = type: functional, cell-based, Homo sapiens; conditions: Homo sapiens, NOMO-1;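 further: growth inhibition of human NOMO-1 cells measured by a cell viability assay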
Description: SANGER: Inhibition of human NOMO-1 cell growth in a cell viability assay.

AM-38 = type: functional, cell-based, Homo sapiens; conditions: Homo sapiens, AM-38;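 further: growth inhibition of AM-38 cells of human origin, read out by a cell viability assay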
Description: SANGER: Inhibition of human AM-38 cell growth in a cell viability assay.

CCRF-CEM = type: functional, cell-based, Homo sapiens; conditions: Homo sapiens, CCRF-CEM;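 further: inhibition of CCRF-CEM cell growth, measured by a cell viability assay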
Description: SANGER: Inhibition of human CCRF-CEM cell growth in a cell viability assay.

SK-LMS-1 = type: functional, cell-based, Homo sapiens; conditions: Homo sapiens, SK-LMS-1;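 further: growth inhibition of human SK-LMS-1 cells, read out with a cell viability assay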
Description: SANGER: Inhibition of human SK-LMS-1 cell growth in a cell viability assay.

OVCAR-4 = type: functional, cell-based, Homo sapiens; conditions: Homo sapiens, OVCAR-4;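 further: growth inhibition of human OVCAR-4 cells, measured with a cell viability assay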
Description: SANGER: Inhibition of human OVCAR-4 cell growth in a cell viability assay.

C2BBe1 = type: functional, cell-based, Homo sapiens; conditions: Homo sapiens, C2BBe1;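 further: growth inhibition of C2BBe1 cells, read out through a viability assay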
Description: SANGER: Inhibition of human C2BBe1 cell growth in a cell viability assay.

SW 962 = type: functional, cell-based, Homo sapiens; conditions: Homo sapiens, SW 962;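 further: growth inhibition of human SW962 cells, read out by a cell viability assay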
Description: SANGER: Inhibition of human SW962 cell growth in a cell viability assay.

ES4 = type: functional, cell-based, Homo sapiens; conditions: Homo sapiens, ES4;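 further: growth inhibition of human ES4 cells, read out by a cell viability assay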
Description: SANGER: Inhibition of human ES4 cell growth in a cell viability assay.

HT = type: functional, cell-based, Homo sapiens; conditions: Homo sapiens, HT
Description: SANGER: Inhibition of human HT cell growth in a cell viability assay.

LOX IMVI = type: functional, cell-based, Homo sapiens; conditions: Homo sapiens, LOX IMVI
Description: SANGER: Inhibition of human LOXIMVI cell growth in a cell viability assay.

TE-10 = type: functional, cell-based, Homo sapiens; conditions: Homo sapiens, TE-10;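 further: growth inhibition of TE-10 cells, measured by a cell viability assay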
Description: SANGER: Inhibition of human TE-10 cell growth in a cell viability assay.

KG-1 = type: functional, cell-based, Homo sapiens; conditions: Homo sapiens, KG-1;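 further: growth inhibition of KG-1 cells, read out by a cell viability assay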
Description: SANGER: Inhibition of human KG-1 cell growth in a cell viability assay.

MC116 = type: functional, cell-based, Homo sapiens; conditions: Homo sapiens, MC116;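 further: growth inhibition of MC116 cells, read out with a cell viability assay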
Description: SANGER: Inhibition of human MC116 cell growth in a cell viability assay.

TGBC1TKB = type: functional, cell-based, Homo sapiens; conditions: Homo sapiens, TGBC1TKB;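 further: growth inhibition of TGBC1TKB cells, read out by a cell viability assay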
Description: SANGER: Inhibition of human TGBC1TKB cell growth in a cell viability assay.

NCI-H720 = type: functional, cell-based, Homo sapiens; conditions: Homo sapiens, NCI-H720;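 further: growth inhibition of human NCI-H720 cells determined by a cell viability assay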
Description: SANGER: Inhibition of human NCI-H720 cell growth in a cell viability assay.

IST-SL1 = type: functional, cell-based, Homo sapiens; conditions: Homo sapiens, IST-SL1;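 further: growth inhibition of human IST-SL1 cells, read out with a cell viability assay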
Description: SANGER: Inhibition of human IST-SL1 cell growth in a cell viability assay.

DMS-114 = type: functional, cell-based, Homo sapiens; conditions: Homo sapiens, DMS-114
KM12 = type: functional, cell-based, Homo sapiens; conditions: Homo sapiens, KM12;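 further: KM12 cell growth inhibition, read out with a cell viability assay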
Description: SANGER: Inhibition of human KM12 cell growth in a cell viability assay.

SW872 = type: functional, cell-based, Homo sapiens; conditions: Homo sapiens, SW872;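 further: growth inhibition of SW872 cells, read out by a viability assay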
Description: SANGER: Inhibition of human SW872 cell growth in a cell viability assay.

ETK-1 = type: functional, cell-based, Homo sapiens; conditions: Homo sapiens, ETK-1;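 further: growth inhibition of human ETK-1 cells, read out with a cell viability assay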
Description: SANGER: Inhibition of human ETK-1 cell growth in a cell viability assay.

OMC-1 = type: functional, cell-based, Homo sapiens; conditions: Homo sapiens, OMC-1;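 further: growth inhibition of the OMC-1 cell line, measured by a cell viability assay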
Description: SANGER: Inhibition of human OMC-1 cell growth in a cell viability assay.

LB771-HNC = type: functional, cell-based, Homo sapiens; conditions: Homo sapiens, LB771-HNC;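 further: growth inhibition of LB771-HNC human cells, read out with a cell viability assay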
Description: SANGER: Inhibition of human LB771-HNC cell growth in a cell viability assay.

MV4-11 = type: functional, cell-based, Homo sapiens, MV-4-11; conditions: Homo sapiens, MV4-11;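 further: cell viability readout measuring growth inhibition of human MV-4-11 cells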
Description: SANGER: Inhibition of human MV-4-11 cell growth in a cell viability assay.

DB = type: functional, cell-based, Homo sapiens; conditions: Homo sapiens, DB
Description: SANGER: Inhibition of human DB cell growth in a cell viability assay.

TGBC24TKB = type: functional, cell-based, Homo sapiens; conditions: Homo sapiens, TGBC24TKB;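 further: growth inhibition of human TGBC24TKB cells, read out with a cell viability assay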
Description: SANGER: Inhibition of human TGBC24TKB cell growth in a cell viability assay.

C#Cc1cccc(Nc2ncnc3cc(OCCOC)c(OCCOC)cc23)c1 [ERLOTINIB]
IC50 (SF-539): > 2 µM
IC50 (NCI-H1838): > 2 µM
IC50 (SNU1): > 2 µM
IC50 (ES3): > 2 µM
IC50 (UACC-257): > 2 µM
IC50 (NCI-H1581): > 2 µM
IC50 (KU812 cell line): > 2000 nM
IC50 (TE-9): 1230 nM
IC50 (EC-GI-10): > 2000 nM
IC50 (RXF 393): > 2 µM
IC50 (NCI-H446): > 2 µM
IC50 (L-428): > 2 µM
IC50 (QIMR-WIL): > 2000 nM
IC50 (LU-134-A): > 2 µM
IC50 (MS-1): > 2 µM
IC50 (HH): > 2000 nM
IC50 (SNB-75): > 2 µM
IC50 (Calu-6): > 2 µM
IC50 (NCI-H1648): 40 nM
IC50 (CAS-1): > 2 µM
IC50 (HCC2157): > 2 µM
IC50 (K5): > 2 µM
IC50 (EW-24): 594 nM
IC50 (DSH1): > 2 µM
IC50 (NOMO-1): > 2 µM
IC50 (AM-38): > 2 µM
IC50 (CCRF-CEM): > 2 µM
IC50 (SK-LMS-1): > 2 µM
IC50 (OVCAR-4): > 2 µM
IC50 (C2BBe1): > 2 µM
IC50 (SW 962): > 2 µM
IC50 (ES4): > 2000 nM
IC50 (HT): > 2 µM
IC50 (LOX IMVI): > 2000 nM
IC50 (TE-10): > 2 µM
IC50 (KG-1): > 2 µM
IC50 (MC116): > 2 µM
IC50 (TGBC1TKB): > 2 µM
IC50 (NCI-H720): > 2000 nM
IC50 (IST-SL1): > 2000 nM
IC50 (DMS-114): > 2 µM
IC50 (KM12): > 2 µM
IC50 (SW872): > 2 µM
IC50 (ETK-1): > 2 µM
IC50 (OMC-1): > 2 µM
IC50 (LB771-HNC): > 2 µM

CC(C)CCN1c2nc(Nc3cc(F)c(O)c(F)c3)ncc2N(C)C(=O)C1C (stereo not drawn)
IC50 (SF-539): > 5 µM
IC50 (NCI-H1838): > 5 µM
IC50 (SNU1): > 5 µM
IC50 (ES3): > 5 µM
IC50 (UACC-257): > 5 µM
IC50 (NCI-H1581): > 5 µM
IC50 (KU812 cell line): 626 nM
IC50 (TE-9): 2170 nM
IC50 (RXF 393): > 5 µM
IC50 (NCI-H446): 3.68 µM
IC50 (L-428): > 5 µM
IC50 (MV4-11): 979 nM
IC50 (QIMR-WIL): 2080 nM
IC50 (DB): 2550 nM
IC50 (LU-134-A): 3.95 µM
IC50 (MS-1): > 5 µM
IC50 (HH): 2800 nM
IC50 (SNB-75): > 5 µM
IC50 (Calu-6): > 5 µM
IC50 (NCI-H1648): > 5000 nM
IC50 (CAS-1): > 5 µM
IC50 (HCC2157): > 5 µM
IC50 (K5): > 5 µM
IC50 (DSH1): > 5 µM
IC50 (NOMO-1): > 5 µM
IC50 (TGBC24TKB): > 5 µM
IC50 (AM-38): > 5 µM
IC50 (CCRF-CEM): > 5 µM
IC50 (SK-LMS-1): > 5 µM
IC50 (OVCAR-4): > 5 µM
IC50 (C2BBe1): > 5 µM
IC50 (SW 962): > 5 µM
IC50 (ES4): 1850 nM
IC50 (HT): > 5 µM
IC50 (LOX IMVI): 2040 nM
IC50 (TE-10): > 5 µM
IC50 (KG-1): 3.61 µM
IC50 (MC116): > 5 µM
IC50 (TGBC1TKB): > 5 µM
IC50 (NCI-H720): 172 nM
IC50 (IST-SL1): 846 nM
IC50 (DMS-114): 4.81 µM
IC50 (KM12): 3.12 µM
IC50 (SW872): > 5 µM
IC50 (ETK-1): 4.36 µM
IC50 (OMC-1): > 5 µM
IC50 (LB771-HNC): > 5 µM
